{
  "source": "paper PMC12046209",
  "about": "“Structure, Oligomerization, and Thermal Stability of a Recently Discovered Old Yellow Enzyme” (Proteins, 2025)",
  "molecular_target": "T1, FOYE (Old Yellow Enzyme from Ferrovum sp. JA12) (Ferrovum sp., UniProt Z9U1E9MGE1)",
  "T1 construct": "pET-28a(+), N-terminal 6xHis tag with thrombin site (removal not described; two tag residues visible in crystal); E. coli BL21(DE3) Star pLysS; homotetramer",
  "T1 sequence (Z9U1E9MGE1 20-373)": "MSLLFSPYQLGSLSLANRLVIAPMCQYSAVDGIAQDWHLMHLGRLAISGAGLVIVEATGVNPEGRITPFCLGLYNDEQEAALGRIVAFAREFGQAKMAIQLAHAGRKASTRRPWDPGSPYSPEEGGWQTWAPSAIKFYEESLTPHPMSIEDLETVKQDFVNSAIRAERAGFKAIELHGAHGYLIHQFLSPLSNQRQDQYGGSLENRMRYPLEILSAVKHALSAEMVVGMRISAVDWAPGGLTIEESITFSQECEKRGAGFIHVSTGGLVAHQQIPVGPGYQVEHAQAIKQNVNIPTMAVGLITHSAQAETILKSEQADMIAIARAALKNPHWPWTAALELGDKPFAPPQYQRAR",
  "assay": "X-ray crystal structure",
  "format": "binding",
  "details": "co-purified cofactor, present in all four protomers; crystals from Morpheus II condition E4, 20°C",
  "data": [
    {"molecule": "Cc1cc2nc3c(=O)[nH]c(=O)nc-3n(C[C@H](O)[C@H](O)[C@H](O)COP(=O)(O)O)c2cc1C", "note": "[FMN]", "values": [
      {"measurement": "X-ray crystal structure", "result": "The electron density for the FMN is clearly visible in all the protomers"}
    ]}
  ]
}
